Assay results as given in patent US5270182A, “Antibiotic compounds and their production” (Hoechst Aktiengesellschaft, priority 1991, dated 1993).
Converted amounts (≈) assume the structure as drawn.

Legend:
staphylococci = test: treatment of experimental animals infected with staphylococci; format: in vivo
Solubility = format: physicochemical
Ent. faecalis 21777 = test: MIC, agar-dilution method in Mueller-Hinton agar; format: cell-based; settings: Enterococcus faecalis
Source text: (§1) Compound M901809 and its acid hydrolysis product M901809H are active against gram-positive bacteria.

Ent. faecalis UD8b = test: MIC, agar-dilution method in Mueller-Hinton agar; format: cell-based; settings: Enterococcus faecalis
Source text: as §1

Ent. faecalis 26777 = test: MIC, agar-dilution method in Mueller-Hinton agar; format: cell-based; settings: Enterococcus faecalis
Source text: as §1

Staph. aureus 20240 = test: MIC, agar-dilution method in Mueller-Hinton agar; format: cell-based; settings: Staphylococcus aureus, lactam resistant
Source text: as §1

Staph. aureus 209 P = test: MIC, agar-dilution method in Mueller-Hinton agar; format: cell-based; settings: Staphylococcus aureus
Source text: as §1

Staph. aureus 3066 = test: MIC, agar-dilution method in Mueller-Hinton agar; format: cell-based; settings: Staphylococcus aureus
Source text: as §1

Ent. faecalis 3903 = test: MIC, agar-dilution method in Mueller-Hinton agar; format: cell-based; settings: Enterococcus faecalis
Source text: as §1

Ent. faecalis 782 = test: MIC, agar-dilution method in Mueller-Hinton agar; format: cell-based; settings: Enterococcus faecalis
Source text: as §1

Ent. faecalis D 65 = test: MIC, agar-dilution method in Mueller-Hinton agar; format: cell-based; settings: Enterococcus faecalis, D65
Source text: as §1

Ent. faecalis 734 = test: MIC, agar-dilution method in Mueller-Hinton agar; format: cell-based; settings: Enterococcus faecalis
Source text: as §1

Ent. faecalis Eder = test: MIC, agar-dilution method in Mueller-Hinton agar; format: cell-based; settings: Enterococcus faecalis
Source text: as §1

Staph. epidermidis 823 = test: MIC, agar-dilution method in Mueller-Hinton agar; format: cell-based; settings: Staphylococcus epidermidis, Teicoplanin resistant, methicillin resistant
Source text: as §1
(§2) c = Teicoplanin resistant
(§3) Strains 5 to 26 are methicillin resistant staphylococci.

Staph. epidermidis 825 = test: MIC, agar-dilution method in Mueller-Hinton agar; format: cell-based; settings: Staphylococcus epidermidis, Teicoplanin resistant, methicillin resistant
Source text: as §1, §2, §3

Staph. epidermidis 109 = test: MIC, agar-dilution method in Mueller-Hinton agar; format: cell-based; settings: Staphylococcus epidermidis, methicillin resistant
Source text: as §1, §3

Staph. aureus 712 = test: MIC, agar-dilution method in Mueller-Hinton agar; format: cell-based; settings: Staphylococcus aureus, methicillin resistant
Source text: as §1, §3

Staph. aureus C 31153 = test: MIC, agar-dilution method in Mueller-Hinton agar; format: cell-based; settings: Staphylococcus aureus, C31153, methicillin resistant
Source text: as §1, §3

Staph. epidermidis 2 Tub = test: MIC, agar-dilution method in Mueller-Hinton agar; format: cell-based; settings: Staphylococcus epidermidis, methicillin resistant
Source text: as §1, §3

Staph. aureus 694 = test: MIC, agar-dilution method in Mueller-Hinton agar; format: cell-based; settings: Staphylococcus aureus, methicillin resistant
Source text: as §1, §3

Staph. aureus 690 = test: MIC, agar-dilution method in Mueller-Hinton agar; format: cell-based; settings: Staphylococcus aureus, methicillin resistant
Source text: as §1, §3

Staph. aureus 706 = test: MIC, agar-dilution method in Mueller-Hinton agar; format: cell-based; settings: Staphylococcus aureus, methicillin resistant
Source text: as §1, §3

Staph. epidermidis 178 = test: MIC, agar-dilution method in Mueller-Hinton agar; format: cell-based; settings: Staphylococcus epidermidis, methicillin resistant
Source text: as §1, §3

Staph. aureus 725 = test: MIC, agar-dilution method in Mueller-Hinton agar; format: cell-based; settings: Staphylococcus aureus, methicillin resistant
Source text: as §1, §3

Staph. aureus Co. 1 = test: MIC, agar-dilution method in Mueller-Hinton agar; format: cell-based; settings: Staphylococcus aureus, methicillin resistant
Source text: as §1, §3

Staph. aureus 011UC5 = test: MIC, agar-dilution method in Mueller-Hinton agar; format: cell-based; settings: Staphylococcus aureus, methicillin resistant
Source text: as §1, §3

Staph. aureus E 121 = test: MIC, agar-dilution method in Mueller-Hinton agar; format: cell-based; settings: Staphylococcus aureus, E121, methicillin resistant
Source text: as §1, §3

Staph. epidermidis 607 = test: MIC, agar-dilution method in Mueller-Hinton agar; format: cell-based; settings: Staphylococcus epidermidis, methicillin resistant
Source text: as §1, §3

Staph. aureus 722 = test: MIC, agar-dilution method in Mueller-Hinton agar; format: cell-based; settings: Staphylococcus aureus, methicillin resistant
Source text: as §1, §3

Staph. aureus 789 = test: MIC, agar-dilution method in Mueller-Hinton agar; format: cell-based; settings: Staphylococcus aureus, methicillin resistant
Source text: as §1, §3

Staph. aureus 710 = test: MIC, agar-dilution method in Mueller-Hinton agar; format: cell-based; settings: Staphylococcus aureus, methicillin resistant
Source text: as §1, §3

Staph. epidermidis 291 = test: MIC, agar-dilution method in Mueller-Hinton agar; format: cell-based; settings: Staphylococcus epidermidis, methicillin resistant
Source text: as §1, §3

Staph. aureus E 88 = test: MIC, agar-dilution method in Mueller-Hinton agar; format: cell-based; settings: Staphylococcus aureus, E88, methicillin resistant
Source text: as §1, §3

Staph. haemolyticus 809 = test: MIC, agar-dilution method in Mueller-Hinton agar; format: cell-based; settings: Staphylococcus haemolyticus
Source text: as §1, §3

Staph. haemolyticus 712 = test: MIC, agar-dilution method in Mueller-Hinton agar; format: cell-based; settings: Staphylococcus haemolyticus
Source text: as §1, §3

Ent. faecium van R1 = test: MIC, agar-dilution method in Mueller-Hinton agar; format: cell-based; settings: Enterococcus faecium, VANR1
Source text: as §1, §2
d = Vancomycin resistant

streptococci = test: treatment of experimental animals infected with streptococci; format: in vivo
gram-positive bacteria = test: activity against gram-positive bacteria; format: cell-based
Source text: as §1

Staph. aureus 20424 = test: MIC, agar-dilution method in Mueller-Hinton agar; format: cell-based; settings: Staphylococcus aureus, Erythromycin resistant
Source text: as §1
a = Erythromycin resistant

CCCC1Cc2cc3c(c(O)c2C(=O)O1)-c1c(c(OC)c2oc4c(OC5CC(O)C(OC6CC(O)C(OC7CC(OC)C(O)C(C)O7)C(C)O6)C(C)O5)ccc(O)c4c(=O)c2c1O)C(O)C3O (centres unmarked) [M901809]
activity in treatment of infected experimental animals (staphylococci): active | Solubility (Solubility; in CH2Cl2): Very soluble | Solubility (Solubility; in CH3CN): Poor to moderate | Solubility (Solubility; in CHCl3): Very soluble | Solubility (Solubility; in DMSO): Very soluble | Solubility (Solubility; in H2O): Insoluble | Solubility (Solubility; in MeOH): Poor to moderate | Solubility (Solubility; in ethyl acetate): Poor to moderate | Solubility (Solubility; in hexane): Insoluble | Solubility (Solubility; in petroleum ether (40-60° C.)): Insoluble | MIC (Ent. faecalis 21777): 0.4 µg/mL (≈ 0.425 µM) | MIC (Ent. faecalis UD8b): 0.8 µg/mL (≈ 0.85 µM) | MIC (Ent. faecalis 26777): 0.4 µg/mL (≈ 0.425 µM) | MIC (Staph. aureus 20240): 0.2 µg/mL (≈ 0.213 µM) | MIC (Staph. aureus 209 P): 0.1 µg/mL (≈ 0.106 µM) | MIC (Staph. aureus 3066): 0.2 µg/mL (≈ 0.213 µM) | MIC (Ent. faecalis 3903): 0.4 µg/mL (≈ 0.425 µM) | MIC (Ent. faecalis 782): 0.4 µg/mL (≈ 0.425 µM) | MIC (Ent. faecalis D 65): 1.6 µg/mL (≈ 1.7 µM) | MIC (Ent. faecalis 734): 0.4 µg/mL (≈ 0.425 µM) | MIC (Ent. faecalis Eder): 0.4 µg/mL (≈ 0.425 µM) | MIC (Staph. epidermidis 823): 0.4 µg/mL (≈ 0.425 µM) | MIC (Staph. epidermidis 825): 0.8 µg/mL (≈ 0.85 µM) | MIC (Staph. epidermidis 109): 0.4 µg/mL (≈ 0.425 µM) | MIC (Staph. aureus 712): 0.2 µg/mL (≈ 0.213 µM) | MIC (Staph. aureus C 31153): 0.1 µg/mL (≈ 0.106 µM) | MIC (Staph. epidermidis 2 Tub): 0.2 µg/mL (≈ 0.213 µM) | MIC (Staph. aureus 694): 0.2 µg/mL (≈ 0.213 µM) | MIC (Staph. aureus 690): 0.2 µg/mL (≈ 0.213 µM) | MIC (Staph. aureus 706): 0.2 µg/mL (≈ 0.213 µM) | MIC (Staph. epidermidis 178): 0.2 µg/mL (≈ 0.213 µM) | MIC (Staph. aureus 725): 0.1 µg/mL (≈ 0.106 µM) | MIC (Staph. aureus Co. 1): 0.1 µg/mL (≈ 0.106 µM) | MIC (Staph. aureus 011UC5): 0.1 µg/mL (≈ 0.106 µM) | MIC (Staph. aureus E 121): 0.2 µg/mL (≈ 0.213 µM) | MIC (Staph. epidermidis 607): 0.4 µg/mL (≈ 0.425 µM) | MIC (Staph. aureus 722): 0.2 µg/mL (≈ 0.213 µM) | MIC (Staph. aureus 789): 0.1 µg/mL (≈ 0.106 µM) | MIC (Staph. aureus 710): 0.2 µg/mL (≈ 0.213 µM) | MIC (Staph. epidermidis 291): 0.2 µg/mL (≈ 0.213 µM) | MIC (Staph. aureus E 88): 0.2 µg/mL (≈ 0.213 µM) | MIC (Staph. haemolyticus 809): 0.4 µg/mL (≈ 0.425 µM) | MIC (Staph. haemolyticus 712): 0.2 µg/mL (≈ 0.213 µM) | MIC (Ent. faecium van R1): 1.6 µg/mL (≈ 1.7 µM) | activity in treatment of infected experimental animals (streptococci): active | activity against gram-positive bacteria (gram-positive bacteria): active | MIC (Staph. aureus 20424): 0.2 µg/mL (≈ 0.213 µM)
